We go through 6 compounds from article PMC10986487, “Epidrugs: alternative chemotherapy targeting Theileria annulata schizont stage parasites” (Microbiology Spectrum, 2024).

For assay [1], the system named is T. annulata-infected bovine cells. The experiment in a line: Resazurin-based drug susceptibility assay, 2-fold serial dilutions, 48 hours. It is filed as cell-based, Theileria annulata. The settings on record: 0.019 µM to 10 µM, read-out: IC50 against T. annulata-infected cells. As to the method:
In this study, we conducted a screening of 148 compounds from the Cayman epigenetics library against the asexual schizont stage of T. annulata-infected bovine cells to assess their potential anti-theilerial activity (Fig. 1A). The initial screening involved testing the compounds at a concentration of 10 µM, with BPQ serving as the internal control. […] Subsequently, we performed drug susceptibility assays on the selected 27 compounds to determine their 50% inhibitory concentration (IC50) values against T. annulata-infected cells. To do this, 2-fold serial dilutions ranging from 0.019 µM to 10 µM were prepared, and the percentage of cell death was assessed after 48 hours using resazurin-based assays.
Fig 1 Screening of epigenetic inhibitors for potential anti-theilerial activity in T. annulata-infected cells. (A) List of compounds and their functional classes used in this study. (B) Inhibition (%) of the hits (n = 27) with anti-theilerial activity when screened in T. annulata-infected cells, where the cut-off (--) was set at 50% inhibition. […] (E) Flow cytometry-based detection of annexin V-positive T. annulata-infected cells upon drug treatment for detection of early apoptosis.

Assay [2] deals with Theileria annulata. More on the design: method as in earlier work. The note with it: ref 14 (Titus et al.); read-out: Concentration displaying anti-theilerial effects; cited from earlier work.

Each structure is given as a SMILES string. Like-named read-outs stand apart in the source and are kept apart here.

As to `O=C(CCl)Nc1ccc(S(=O)(=O)c2ccc(NC(=O)CCl)cc2)cc1` [TCE-5003], the IC50 in assay [1] was 3.68 µM.
On the same count and under the same terms, for `CC1(C)C(=O)N=C2C1=C(O)C(=O)c1ccccc12` [BVT-948] the value was 2.58 µM; for `COC(=O)/C=C/C(=O)N(O)CCCCNCc1ccc(COC(=O)Nc2cccc3ccccc23)cc1` [Methylstat], 6.97 µM; for `Cc1ccc(NC2=CC(=O)c3sc(C)nc3C2=O)cc1` [Ryuvidine], 2.18 µM.
For the compound `CC1=CC(=O)c2c(O)cccc2C1=O` [Plumbagin], the IC50 in assay [1] (Theileria annulata) is 8.13 µM; in assay [2] it was 0.009 µM.
With `CC(/C=C/C(=O)NO)=C\[C@@H](C)C(=O)c1ccc(N(C)C)cc1` [Trichostatin A], the IC50 in assay [1] stood at 6.02 µM.
